From ChEMBL document CHEMBL1131870, “The inhibition of human cytomegalovirus (hCMV) protease by hydroxylamine derivatives” (Bioorg Med Chem Lett, 1999) come the findings set out here.

The target of the experiment is T1, Capsid scaffolding protein (Human cytomegalovirus (strain AD169) (HHV-5) (Human herpesvirus 5), UniProt P16753).
T1 sequence (P16753 whole entry): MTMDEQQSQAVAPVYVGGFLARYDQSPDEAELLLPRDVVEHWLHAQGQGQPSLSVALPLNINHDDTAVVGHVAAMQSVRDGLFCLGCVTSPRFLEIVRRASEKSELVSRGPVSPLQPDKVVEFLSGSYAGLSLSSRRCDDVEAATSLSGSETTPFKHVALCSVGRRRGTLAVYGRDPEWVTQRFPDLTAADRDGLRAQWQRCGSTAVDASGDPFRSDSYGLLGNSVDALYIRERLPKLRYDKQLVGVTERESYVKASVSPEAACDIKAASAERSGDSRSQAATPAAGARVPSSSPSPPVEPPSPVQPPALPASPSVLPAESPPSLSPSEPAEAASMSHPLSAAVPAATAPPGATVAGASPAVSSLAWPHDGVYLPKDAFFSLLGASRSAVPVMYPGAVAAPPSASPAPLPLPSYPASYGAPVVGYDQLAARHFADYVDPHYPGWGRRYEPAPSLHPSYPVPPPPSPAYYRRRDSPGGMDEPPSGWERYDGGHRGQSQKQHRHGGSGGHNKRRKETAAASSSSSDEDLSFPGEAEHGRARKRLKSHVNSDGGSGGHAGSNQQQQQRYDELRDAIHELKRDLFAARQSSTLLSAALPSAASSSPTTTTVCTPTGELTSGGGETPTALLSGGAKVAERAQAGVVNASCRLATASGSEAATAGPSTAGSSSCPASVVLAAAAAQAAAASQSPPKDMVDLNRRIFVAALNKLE
As to the kind of experiment: Inhibitory activity against Human Cytomegalovirus (hCMV) protease. Further details: species or system Human betaherpesvirus 5.
The IC50 is the midpoint of a concentration-inhibition curve. Read a high IC50 as weaker potency. Consider `Cc1csc2nc(Cc3ccc(C(=O)c4cccc(N=O)c4)cc3)oc(=O)c12`, for which the midpoint of inhibition, the IC50, lay at 55 nM.

`Cc1csc2nc(Cc3ccc(C(=O)c4cccc(N)c4)cc3)oc(=O)c12` registered an IC50 of 1000 nM.

`NO` [HYDROXYLAMMONIUM CHLORIDE] came in with an IC50 greater than 33000 nM.

For the compound `CC(=O)ON(C(C)=O)c1cccc(C(=O)c2ccc(Cc3nc4scc(C)c4c(=O)o3)cc2)c1`, the IC50 worked out at 1400 nM.

Take `Cc1csc2nc(Cc3ccc(C(=O)c4ccccc4)cc3)oc(=O)c12`: half-maximal inhibition (IC50) was put at 800 nM. This IC50 lies about 1.8-fold lower than the previous one.

In turn, `Cc1csc2nc(Cc3ccc(C(=O)c4cccc([N+](=O)[O-])c4)cc3)oc(=O)c12` displayed an IC50 of 3500 nM.

Consider `Cc1csc2nc(Cc3cccc(NC(=O)c4cccc(NO)c4)c3)oc(=O)c12`, for which the midpoint of inhibition, the IC50, lay at 45 nM.

In the case of `CC(=O)c1cccc(NO)c1`, the IC50 is 11000 nM.

Regarding `Cc1csc2nc(Cc3ccc(C(=O)c4ccccc4)cc3)[nH]c(=O)c12`, the IC50 is greater than 33000 nM.

On to `Cc1csc2nc(Cc3ccc(C(=O)c4cccc(NO)c4)cc3)oc(=O)c12`, for which half-maximal inhibition (IC50) was put at 19 nM. This counts as double-digit nanomolar.

Compound `Cc1ccc(C(=O)c2cccc(NO)c2)cc1` had a concentration for half-maximal inhibition (IC50) of 3700 nM.

The compound `Cc1csc2nc(Cc3ccc(C(=O)c4cccc(/N=[N+](\[O-])c5cccc(C(=O)c6ccc(Cc7nc8scc(C)c8c(=O)o7)cc6)c5)c4)cc3)oc(=O)c12` returned an IC50 greater than 33000 nM.

Turning to `CONc1cccc(C(=O)Nc2cccc(Cc3nc4scc(C)c4c(=O)o3)c2)c1`, the IC50 is 2200 nM.

As for `Cc1csc2nc(Cc3cccc(NC(=O)c4ccc(NO)cc4)c3)oc(=O)c12`, it took 61 nM to reach half-maximal inhibition (IC50).

Turning to `Cc1csc2nc(Cc3ccc(C(=O)c4cccc(NO)c4)cc3)[nH]c(=O)c12`, inhibition was half-maximal at 2000 nM (IC50).

`CC(=O)N(O)c1cccc(C(=O)c2ccc(Cc3nc4scc(C)c4c(=O)o3)cc2)c1` came in with an IC50 of 1100 nM.

With `Cc1csc2nc(Cc3cccc(NC(=O)c4ccccc4)c3)oc(=O)c12`, the IC50 is 1500 nM.

Consider `Cc1csc2nc(Cc3cccc(NC(=O)c4ccc(NN)cc4)c3)oc(=O)c12`, for which the IC50 stood at 2400 nM.

Regarding `ONc1ccccc1`, the IC50 was 9000 nM.

`Cc1csc2nc(Cc3ccc(C(=O)c4ccc(CO)cc4)cc3)oc(=O)c12` registered an IC50 of 940 nM.

For `Cc1csc2nc(Cc3ccc(C(=O)c4cccc(CO)c4)cc3)oc(=O)c12`, the IC50 was determined as 1100 nM.

As for `Cc1csc2nc(Cc3cccc(NC(=O)c4cccc(NN)c4)c3)oc(=O)c12`, half-maximal inhibition (IC50) was put at 3800 nM.

`Cc1csc2nc(Cc3ccc(C(=O)c4ccc(NO)cc4)cc3)oc(=O)c12` gave an IC50 of 14 nM.
